What was measured:
[1] = target: T1, DDR1 phosphorylation in T-47D (ATCC, HTB-133) cells (Homo sapiens, UniProt Q08345); experiment: Measurement of DDR1 phosphorylation suppression rate by using T-47D cells (p-DDR1 ELISA); format: cell-based; conditions: collagen Type I 10 μg/ml, p-DDR1 (panTyr) ELISA
T1 construct: host or cells: T-47D
Procedure: Biological Example 2: Measurement of DDR1 Phosphorylation Suppression Rate by Using T-47D (ATCC, HTB-133) cells
T-47D cells should be in culture for at least 7 days before using in the assay.
Cell culture medium: RPMI 1640 (HyClone) containing 10% Heat-FBS (HyClone) was prepared.
Assay medium: RPMI 1640 containing 0.1% BSA (solarbio) was prepared.
Collagen Type I (rat tail) solution: Assay medium containing 200 μg/mL Collagen I, rat tail (Gibco) was prepared.
Cell lysis buffer: a solution containing IX cell lysis buffer (CST) and 1× protease and phosphatase inhibitor cocktail (Thermofisher) was prepared by using ddH2O.
• 1. Collect cells into tubes and centrifuge at 1200 rpm for 5 min, at room temperature. Re-suspend the cells in cell culture medium pre-warmed to room temperature. • 2. Count cells and suspend at a density of 2×10^5/ml of cell culture medium. Plate the cells at 100 μL per well (Corning 3599 96-well plate, 2×10^4 cells per well final), mixing the cells well between each draw of the pipettor. • 3. Put lid on cell plate and place into the incubator at 37° C., 5% CO2 • 4. Culture cell overnight
• 1. Remove the plate from the incubator • 2. Cell medium is replaced with the 90 μL Assay medium.
• 1. Compound plates are pre-titrated using DMSO (10-fold dilution for 6 points) • 2. Dilute test compound using assay medium; Transfer 1 μL compound to other 96 well plate and then add 49 μL assay medium to each well (50 fold dilution). • 3. Add 5 μL the diluted test compound solution to the appropriate wells by pipettor. Compound final concentration is start from […] and DMSO final concentration is 0.1 • 4. Tap the plates gently to mix in compound. Reseal the plate with a lid and place in the incubator again, for 24 h.
• 1. Diluted collagen Type I in assay medium to the 200 μg/ml concentration • 2. Using the pipettor adds 5 μL of 200 μg/mL collagen Type I solution to the cell plate (compound well and High control well, collagen final conc. is 10 μg/ml). Add assay medium buffer to the control wells (low control well) • 3. Reseal the plate with a lid and place in the incubator. Incubate 24 h for collagen type I
• 1. After incubation, add 100 µL per well Cell lysis buffer. • 2. Incubate 30 min on ice, then freezing to −80° C. to get the fully cell lysates. • 3. Transfer cell lysates to new plate • 4. Centrifuge for 30 min (×4000 rpm) at 4° C. Then transfer the supernatant to a new plate.
p-DDR1 (panTyr) ELISA kit (CST) was used in the study. The measurement was carried out according to the attached instruction.
(§1) The inhibition rate (%) in the test compound group was calculated based on the following mathematical formula.
% inhibition=100−100*(assay value of test compound−A)/(B−A) [Math. 2]
A: average value of low control group B: average value of high control group Values of 50% inhibition rate (IC50 values) of the test compound were calculated from the inhibition curve based on the inhibition rate of the test compounds in each concentration.

DDR1 = target: T2, DDR1 (Homo sapiens, UniProt Q08345); experiment: Measurement of DDR1 inhibitory activity (LanthaScreen system, in vitro test); format: binding; conditions: GST-DDR1, Kinase tracer 178
T2 construct: purchased Invitrogen
Procedure: Biological Experiment Example 1: Measurement of an DDR1 Inhibitory Activity (In Vitro Test)
An DDR1 enzyme inhibitory activity was measured by using LanthaScreen (registered trademark) system (Invitrogen) based on the attached instruction. The reagents used are shown below.
Assay buffer: 5× Kinase buffer A (Invitrogen) was diluted 5-fold with ddH2O.
1× Kinase Buffer A: 50 mmol/L HEPES pH 7.5, 10 mmol/L MgCl2, 1 mmol/L EGTA, 0.01% Brij-35.
2×DDR1 Solution: a solution containing […] GST-DDR1 (Invitrogen) was prepared by using Assay buffer.
2× Tracer/antibody solution: a solution containing 20 nmol/L Kinase tracer 178 (Invitorgen) and […] Eu-Anti-GST Antibody (Invitorogen) was prepared by using Assay buffer. Test compound solution: a solution containing a test compound of 2-fold concentration with respect to the final concentration was prepared by 50-fold diluting a DMSO solution of test compound of each concentration with the Assay buffer.
• 1 Add 5 μL 2×DDR1 Solution to proxiplate (PerkinElmer) • 2 Add 5 μL test compound solution to proxiplate • 3 Incubate for 15 min at RT • 4 Add 5 μL 2× Tracer/Antibody solution to all well Incubate 1 h at RT • 6 Read LANCE Eu on Envision (PerkinElmer) (Ex: 320 nm/Em 665 nm & 615 nm)
In the low control group, 5 μL Assay buffer was added instead of 5 μL 2×DDR1 Solution and the final 1% DMSO solution was added instead of test compound solution.
In the high control group, the final 1% DMSO solution was added instead of test compound solution.
as §1
% inhibition=100−100*(assay value of test compound−A)/(B−A) [Math. 1]
A: average value of low control group B: average value of high control group
Values of 50% inhibition rate (IC50 values) of the test compound were calculated from the inhibition curve based on the inhibition rate of the test compounds in each concentration.

T1 sequence (Q08345 19-913): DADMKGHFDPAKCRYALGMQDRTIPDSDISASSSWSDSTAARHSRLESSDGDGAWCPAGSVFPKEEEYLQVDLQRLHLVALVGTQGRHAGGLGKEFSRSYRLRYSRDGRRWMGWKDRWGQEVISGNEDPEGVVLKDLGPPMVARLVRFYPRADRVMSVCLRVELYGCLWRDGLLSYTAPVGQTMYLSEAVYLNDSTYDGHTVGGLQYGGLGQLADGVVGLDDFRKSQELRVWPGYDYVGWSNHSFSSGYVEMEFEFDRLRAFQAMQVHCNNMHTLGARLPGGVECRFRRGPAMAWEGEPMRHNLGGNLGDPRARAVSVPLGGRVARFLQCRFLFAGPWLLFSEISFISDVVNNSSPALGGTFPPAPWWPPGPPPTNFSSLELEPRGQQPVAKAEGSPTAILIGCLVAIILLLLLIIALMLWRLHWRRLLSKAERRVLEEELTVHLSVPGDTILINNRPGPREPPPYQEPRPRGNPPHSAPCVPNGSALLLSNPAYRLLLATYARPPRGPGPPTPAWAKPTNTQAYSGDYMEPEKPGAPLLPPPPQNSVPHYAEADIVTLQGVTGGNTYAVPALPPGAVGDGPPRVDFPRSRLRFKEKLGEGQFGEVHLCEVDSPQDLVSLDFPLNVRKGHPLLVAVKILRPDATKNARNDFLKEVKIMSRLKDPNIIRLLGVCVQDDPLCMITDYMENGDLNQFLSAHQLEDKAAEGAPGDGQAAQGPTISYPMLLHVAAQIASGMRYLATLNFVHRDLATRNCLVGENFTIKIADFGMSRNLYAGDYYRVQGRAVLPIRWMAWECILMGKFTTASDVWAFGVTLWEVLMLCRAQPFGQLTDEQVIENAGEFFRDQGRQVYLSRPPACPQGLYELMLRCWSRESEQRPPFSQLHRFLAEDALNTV
T2 sequence (Q08345 19-913): as above

Row | SMILES | IC50 [1] | IC50 (DDR1)
1 | Cn1cc(-c2cc(O[C@H]3C[C@H](N4C(=O)CN(c5cc(CN6CCNCC6)cc(C(F)(F)F)c5)C4=O)C3)ccn2)cn1 [Example 2(126), 3-(trans-3-{[2-(1-methyl-1H-pyrazol-4-yl)-4-pyridinyl]oxy}cyclobutyl)-1-[3-(1-piperazinylmethyl)-5-(trifluoromethyl)phenyl]-2,4-imidazolidinedione] | 6 nM | 10 nM
2 | CC(C)c1cc(N2C(=O)CN(c3cncc(C(F)(F)F)c3)C2=O)ccc1Oc1ccnc2[nH]c(=O)[nH]c12 [Example 2(149), 3-{3-isopropyl-4-[(2-oxo-2,3-dihydro-1H-imidazo[4,5-b]pyridin-7-yl)oxy]phenyl}-1-[5-(trifluoromethyl)-3-pyridinyl]-2,4-imidazolidinedione] | 3 nM | 3 nM
3 | Cc1cc(N2C(=O)CN(c3cncc(C(F)(F)F)c3)C2=O)ccc1Oc1ccnc2ccnn12 [Example 3(47), 3-[3-methyl-4-(pyrazolo[1,5-a]pyrimidin-7-yloxy)phenyl]-1-[5-(trifluoromethyl)-3-pyridinyl]-2,4-imidazolidinedione] | 1 nM | 1 nM
4 | O=C1CN(c2cncc(C(F)(F)F)c2)C(=O)N1C1CC2CC1CC2Oc1ncnc2[nH]ccc12 (centres unmarked) [Example 3(63), 3-[5-(7H-pyrrolo[2,3-d]pyrimidin-4-yloxy)bicyclo[2.2.1]hept-2-yl]-1-[5-(trifluoromethyl)-3-pyridinyl]-2,4-imidazolidinedione] | 1 nM | 7 nM
5 | O=C1CN(c2cncc(C(F)(F)F)c2)C(=O)N1C1CC2(CC(Oc3ncnc4[nH]ccc34)C2)C1 (centres unmarked) [Example 3(66), 3-[6-(7H-pyrrolo[2,3-d]pyrimidin-4-yloxy)spiro[3.3]hept-2-yl]-1-[5-(trifluoromethyl)-3-pyridinyl]-2,4-imidazolidinedione] | 1 nM | 1 nM
6 | CC(C)c1cc(N2C(=O)CN(c3ccc(CN4CCN(C)CC4)c(C(F)(F)F)c3)C2=O)ccc1Oc1ccnc(N)n1 [Example 3(78), 3-{4-[(2-amino-4-pyrimidinyl)oxy]-3-isopropylphenyl}-1-{4-[(4-methyl-1-piperazinyl)methyl]-3-(trifluoromethyl)phenyl}-2,4-imidazolidinedione] | 2 nM | 4 nM
7 | CCc1cc(N2C(=O)CN(c3cc(C(C)(C)C(F)(F)F)on3)C2=O)ccc1Oc1ccnc(N)n1 [Example 3(101), 3-{4-[(2-amino-4-pyrimidinyl)oxy]-3-ethylphenyl}-1-[5-(1,1,1-trifluoro-2-methyl-2-propanyl)-1,2-oxazol-3-yl]-2,4-imidazolidinedione] | 2 nM | 3 nM

Continued, values first:

Row | IC50 [1] | IC50 (DDR1) | SMILES
8 | 1 nM | 1 nM | Cc1cc(Oc2ccnc(N)n2)ccc1N1C(=O)CN(c2cc(F)cc(C(F)(F)F)c2)C1=O [Example 3(111), 3-{4-[(2-amino-4-pyrimidinyl)oxy]-2-methylphenyl}-1-[3-fluoro-5-(trifluoromethyl)phenyl]-2,4-imidazolidinedione]
9 | 5 nM | 7 nM | CC#Cc1cc(Oc2ccnc(N)n2)ccc1N1C(=O)CN(c2cncc(C(F)(F)F)c2)C1=O [Example 3(120), 3-{4-[(2-amino-4-pyrimidinyl)oxy]-2-(1-propyn-1-yl)phenyl}-1-[5-(trifluoromethyl)-3-pyridinyl]-2,4-imidazolidinedione]
10 | 7 nM | 5 nM | Nc1nccc(Oc2ccc(N3C(=O)CN(c4cncc(C(F)(F)F)c4)C3=O)c(-c3ccccc3)c2)n1 [Example 3(122), 3-{5-[(2-amino-4-pyrimidinyl)oxy]-2-biphenylyl}-1-[5-(trifluoromethyl)-3-pyridinyl]-2,4-imidazolidinedione]
11 | 0.1 nM | 2 nM | CCc1cc(N2C(=O)CN(c3cncc(C(F)(F)F)c3)C2=O)ccc1Oc1ccnc2[nH]ccc12 [Example 3(176), 3-[3-ethyl-4-(1H-pyrrolo[2,3-b]pyridin-4-yloxy)phenyl]-1-[5-(trifluoromethyl)-3-pyridinyl]-2,4-imidazolidinedione]
12 | 1 nM | 3 nM | CCc1cc(N2CCN(c3cccc(C(F)(F)F)c3)C2=O)ccc1Oc1ccnc(N)n1 [Example 4(1), 1-{4-[(2-amino-4-pyrimidinyl)oxy]-3-ethylphenyl}-3-[3-(trifluoromethyl)phenyl]-2-imidazolidinone]
13 | 2 nM | 5 nM | COc1cc2nccc(Cc3ccc(N4C(=O)CN(c5cccc(C(F)(F)F)c5)C4=O)cc3)c2cc1OC [Example 6(1), 3-{4-[(6,7-dimethoxy-4-quinolinyl)methyl]phenyl}-1-[3-(trifluoromethyl)phenyl]-2,4-imidazolidinedione]
14 | 2 nM | 3 nM | C=Cc1cc(N2C(=O)CN(c3cncc(C(F)(F)F)c3)C2=O)ccc1Nc1ncnc2cc(OC)cc(F)c12 [Example 7(6), 3-{4-[(5-fluoro-7-methoxy-4-quinazolinyl)amino]-3-vinylphenyl}-1-[5-(trifluoromethyl)-3-pyridinyl]-2,4-imidazolidinedione]
15 | 20 nM | 10 nM | COc1cc2nccc(N3CCc4cc(N5C(=O)CN(c6cncc(C(F)(F)F)c6)C5=O)ccc43)c2cc1OC [Example 9(1), 3-[1-(6,7-dimethoxy-4-quinolinyl)-2,3-dihydro-1H-indol-5-yl]-1-[5-(trifluoromethyl)-3-pyridinyl]-2,4-imidazolidinedione]
16 | 3 nM | 3 nM | O=C1CN(c2cncc(C3(C(F)(F)F)CCO3)c2)C(=O)N1c1ccc(Oc2cnc3[nH]ncc3c2)cc1 (centres unmarked) [Example 13, 3-[4-(1H-pyrazolo[3,4-b]pyridin-5-yloxy)phenyl]-1-{5-[2-(trifluoromethyl)-2-oxetanyl]-3-pyridinyl}-2,4-imidazolidinedione]

Source: US20220306640A1, “HYDANTOIN DERIVATIVE” (ONO PHARMACEUTICAL CO., LTD., priority 2019, published 2022)
